According to ChEMBL document CHEMBL2331555 (ACS Med Chem Lett, 2013):
Converted amounts (≈) assume the structure as drawn.

Key:
[1] = in vitro; conditions: dog, MDCK
[2] = physchem
[3] = in vivo; conditions: rat, po
[4] = in vivo; conditions: rat

Structure (SMILES) | Papp [1] | solubility kinetic [2] | bioavailability [3] | Vd [4]
COCC(=O)N1CCC(n2c(=O)n(C)c3cnc4ccc(-c5ccc(C)nc5)nc4c32)CC1 | 20.2 ×10⁻⁶ cm/s | – | – | –
COc1ccc(-c2ccc3ncc4c(c3n2)n([C@H]2CC[C@H](OCCO)CC2)c(=O)n4C)cn1 | 14.3 ×10⁻⁶ cm/s | 117 µM (≈ 52.6 µg/mL) | – | –
COc1ccc(-c2ccc3ncc4c(c3n2)n(C2CCN(C)CC2)c(=O)n4C)cn1 | 6.65 ×10⁻⁶ cm/s | – | 76% | 4.46 L/kg
Cc1ccc(-c2ccc3ncc4c(c3n2)n(C2CCN(C(=O)C(C)(C)O)CC2)c(=O)n4C)cn1 | 21.9 ×10⁻⁶ cm/s | – | – | –
COc1ccc(-c2ccc3ncc4c(c3n2)n(C2CCN(C(C)=O)CC2)c(=O)n4C)cn1 | 16.3 ×10⁻⁶ cm/s | 22 µM (≈ 9.51 µg/mL) | – | –
Cc1ccc(-c2ccc3ncc4c(c3n2)n(C2CCN(C(=O)CO)CC2)c(=O)n4C)cn1 | 18.2 ×10⁻⁶ cm/s | – | – | –
CC(=O)N1CCC(n2c(=O)n(C)c3cnc4ccc(-c5cccc6[nH]ncc56)nc4c32)CC1 | 8.56 ×10⁻⁶ cm/s | 55.5 µM (≈ 24.5 µg/mL) | – | –
CC(=O)N1CCC(n2c(=O)n(C)c3cnc4ccc(-c5ccc(C)nc5)nc4c32)CC1 | 19.5 ×10⁻⁶ cm/s | 455 µM (≈ 190 µg/mL) | – | –
C[C@H](O)C(=O)N1CCC(n2c(=O)n(C)c3cnc4ccc(-c5cccc6[nH]ncc56)nc4c32)CC1 | 4.6 ×10⁻⁶ cm/s | 444 µM (≈ 209 µg/mL) | – | –
COc1ccc(-c2ccc3ncc4c(c3n2)n([C@H]2CC[C@H](O)CC2)c(=O)n4C)cn1 | 14.3 ×10⁻⁶ cm/s | 22.2 µM (≈ 9 µg/mL) | – | –
CC(=O)N1CCC(n2c(=O)n(C)c3cnc4ccc(-c5cnc6[nH]ncc6c5)nc4c32)CC1 | 3.97 ×10⁻⁶ cm/s | – | – | –
COc1ccc(-c2ccc3ncc4c(c3n2)n(-c2ccc(C(C)(C)C#N)cc2)c(=O)n4C)cn1 | 0.305 ×10⁻⁶ cm/s | 2 µM (≈ 0.901 µg/mL) | – | –
